Experimental data taken from US20210177861A1, “NRF2 ACTIVATOR FOR THE TREATMENT OF ACUTE LUNG INJURY, ACUTE RESPIRATORY DISTRESS SYNDROME AND MULTIPLE ORGAN DYSFUNCTION SYNDROME” (GLAXOSMITHKLINE INTELLECTUAL PROPERTY DEVELOPMENT LIMITED, priority 2017, published 2021).
“Also recorded” adds a separate entry of the source.

Legend:
[1] = tested on: animals with hyperoxia-induced ALI; conditions: animals treated with Bardoxolone; cited from earlier work
rats exposed to ozone [2] = experiment: Severe ozone exposure (faulty ventilation, ozone above intended 1 ppm): death and glutathione; type: in vivo, rat
From the text: FIG. 5 depicts the protection offered by NRF2 activator Compound I against ozone-induced death (FIG. 5A) and loss of glutathione (FIG. 5B). Due to an unknown faulty ventilation system, ozone in the chamber built up to levels (unable to quantify) above those normally used in other studies. The intended exposure was 1 ppm. For those animals that survived, tissue values of NRF2-related parameters were examined 24 hrs. after ozone exposure. In addition, animals exposed to ozone within the control group were combined. All data represent means±S.E.M. (*, **, *** refer to p<0.05, 0.01 and 0.001, respectively). […]
(§1) In another study, rats were exposed to ozone (2.0 ppm) for a 3 hr period twice a week with a resting period of 2 days between treatments. […] Ozone was generated (Oxycycler ozonator (model# A84ZV, Biospherix Inc., Lacona, N.Y.) by passing room air through the ozonator at a rate of 50-75 cm^3/min, mixing it with filtered room air at a rate of 10 L/min, and flowing this sample into a Plexiglass chamber containing the rodents. Ozone, carbon dioxide and humidity levels in the chamber were constantly monitored (Ozone Monitor Model 450, Teledyne Advanced Pollution Instrumentation, Inc., Thousand Oaks, Calif.). The animals were euthanized as described above 24 hrs after the last exposure to ozone. See FIG. 4-5.

mice exposed to ozone = experiment: Repeated ozone exposure, alveolar barrier breakdown (serum surfactant protein-D, mtDNA); type: in vivo, mouse; conditions: FIG. 6
Method: Mice were exposed to ozone (1.5 ppm) for 3 hrs, twice per week for 3 weeks. Compound 1 was administered for 5 days/week, with the first dose administered 1 hour prior to first ozone administration. Blood/serum was collected 2 hrs after the final ozone exposure. Surfactant protein-D was measured using a commercially available ELISA kit. All data represent mean+/−S.E.M.
For determination of mtDNA damage (21), 15 ng of DNA in long chain PCR buffer was coupled with appropriate long and short primers for murine tissues. The reaction mixture was essentially the same for both long and short runs with the exception that the [Mg++] was 1.2 and 1.1 mM, respectively. For mouse tissues, the following thermocycler conditions were utilized: 94° C.×2 min followed by 19 cycles at 94° C.×15 sec, 64° C.×30 sec, 68° C.×8 min and finished at 72° C.×7 min; 94° C.×2 min, 94° C.×15 sec, 60° C.×30 sec, 72° C.×45 sec, and finished at 72° C.×7 min for the long and short PCR, respectively. The long and short primer sequences for mouse;
For both species, the long and short PCR products were then diluted 1:10 with Tris EDTA buffer containing 5 μl/ml of Pico Green (Molecular Probes, Invitrogen, Carlsbad Calif.) and fluorescence was monitored (485 nm excitation/528 nm emission, Envision Perkin Elmer, Waltham, Mass.). The replicates for each sample were averaged, the long primer was subtracted from the short primer, and transformed into percent of control using normalization functions (GraphPad Prism v6.0, La Jolla, Calif.). The data were calculated to reflect an increase in damage by subtracting the long primer from the short primer, rather than the opposite which would show the reduction of signal.
Surfactant protein-D (SP-D) was measured using a commercially available kit (Mouse Quantikine SP-D, R&D Systems #MSFPDO, Minneapolis, Minn.). Absorbances were monitored at 450 and 540 nm using a microplate spectrophotometer (Powerwave, BioTek, Winooski, Vt.) with Gen5 software (version 2.03.Ink). […] Degradation or breakdown of alveolar barrier and leakage of water into the alveolar is measured by wet:dry ratio. […]

paraquat-treated rats = experiment: PQ-induced acute lung injury model (tracheal instillation of paraquat); type: in vivo, rat
From the text: The model of PQ-induced increase in lung edema formation described in Rumsey, W., et al., (Mutagenesis. 2017, 32(3):343-353) is incorporated by reference in its entirety. In support of this invention, ALI was stimulated by the tracheal instillation of PQ which damages mtDNA in lung cells and provokes a loss of epithelial/endothelial integrity and edema formation.
Age-matched male Lewis rats (250-400 g, Charles River Breeding Laboratories, Wilmington, Mass.) were allowed free access to food and water. Animals were administered NRF2 compound via tracheal instillation 24 hours prior to oxidative insult.
For studies using PQ (or N,N′-dimethyl-4,4′-[…], Sigma Aldrich, St Louis, Mo.) as the toxin, aliquots were prepared in sterile phosphate-buffered saline (PBS) and instilled directly to the trachea of the rat while under isoflurane anesthesia. Rats were anesthetized in a small acrylic induction box with 2-5% isoflurane gas. When surgical anesthesia was obtained (assessed by loss of the righting reflex followed by use of the pedal withdrawal reflex), the rat was removed from the box and placed supine on a head up, tilted platform. The trachea was illuminated and either PQ or vehicle (300 μl, doses identified in figure legends) was directly instilled into the trachea, anterior to the primary bifurcation at the carina, using a blunt-tipped needle. The animal was returned to a recovery cage, where the righting reflex was regained in 2-3 minutes.
To monitor changes in airway mechanics, rats were placed into individual plethysmograph chambers (BUXCO Electronics, Troy, N.Y.). Fresh air was supplied by bias flow pumps to the chambers. Baseline respiratory (Penh) values were collected prior to administration of PQ and on succeeding days after administration of the agent. An average Penh was calculated for a period of 5 min where enhanced pause (Penh=[(expiratory time/relaxation time)−1]×(peak expiratory flow/peak inspiratory flow)) and relaxation time is the amount of time required for 70% of the tidal volume to be expired.
For measurements of edema formation in the lungs, the tissue was excised and weighed gravimetrically. A portion was dried overnight in an oven at […]. and weighed for dry weight.
In some studies, bronchoalveolar lavage was performed to identify the immune cells infiltrating the lung in response to the toxicant. After the animals were euthanized (Fatal Plus, 100 mg/kg i.p.), the trachea was surgically exposed and a blunt-tipped needle was inserted into the trachea for administration of lavage fluid (5×5 ml Dulbecco's phosphate buffered saline, PBS). The lavage fluid was collected, placed on ice and centrifuged (3000 rpm×10 min, Beckman-Coulter, Danvers, Mass.). Supernatant was aspirated and frozen whereas the pellet was resuspended in 5 ml of PBS. An aliquot (100 μl) was centrifuged (300 rpm×5 min, cytospin, Thermo-Shandon, Waltham, Mass.) and a separate sample prepared as 1:5 dilution for total cell counts using a hemocytometer. Aliquots of cells were placed on slides and stained (Kwik-Diff-Quick, Thermo-Shandon, Waltham, Mass.) according to manufacturer's instructions. At least 200 cells were counted and percentages of different cell types were calculated (macrophages and neutrophils).
For extraction of either RNA or DNA, the tissue was added to lysis buffer (Kingfisher DNA or RNA extraction kit, Thermo Fisher Scientific, Waltham, Mass.) and the samples were processed according to the manufacturer's instructions. The nucleotide quantities were determined with respective Qubit kits (Thermo Fisher, Waltham, Mass.). For measurement of mtDNA copy number by quantitative real time PCR, nuclear and mitochondrial primer sets (1 pmol/μl), and 2× SYBR green master mix (Life Technologies, Waltham, Mass.) were added to 50 ng of DNA combined with water (total 20 ul). […]

rats exposed to ozone [3] = experiment: Ozone-induced lung injury (1 ppm of ozone for 3 hours); type: in vivo, rat; conditions: 3 μmol/kg i.t. 24 hours prior to 1 ppm ozone for 3 hours, sacrificed four hrs later
Method: FIG. 4 depicts the effect of NRF2 activator Compound I on ozone-induced changes in lung wet to dry weight ratio (FIG. 4A) and relative mtDNA copy number (FIG. 4B). Rats were administered the NRF2 activator (3 μmol/kg i.t.) 24 hours prior to ozone exposure (1 ppm of ozone for 3 hours). Four hrs later the animals were sacrificed. All data represent means±S.E.M. (*, **, *** refer to p<0.05, 0.01 and 0.001, respectively).
Age-matched male Lewis rats (250-400 g, Charles River Breeding Laboratories, Wilmington, Mass.) were allowed free access to food and water. Animals were administered NRF2 compound via tracheal instillation 24 hours prior to oxidative insult. […]
as §1, with “4-5. […]” for “4-5.”

[4] = tested on: murine model of PQ-induced ALI; conditions: treatment with DNasel; cited from earlier work
[5] = relative to the PQ treated vehicle control animals, FIG. 3

Molecule: CC1(C)CC[C@]2(C(=O)O)CC[C@]3(C)[C@H](C(=O)C=C4[C@@]5(C)C=C(C#N)C(=O)C(C)(C)[C@@H]5CC[C@]43C)[C@@H]2C1 [Bardoxolone]
- protection from hyperoxia-induced ALI [1]: protected them from hyperoxia-induced ALI

Molecule: CC[C@@H]1CN(Cc2cc([C@H](CC(=O)O)c3ccc4c(nnn4CC)c3C)ccc2C)S(=O)(=O)c2cccnc2O1 [Compound I, (S)-3-(3-(((R)-4-ethyl-1,1-dioxido-3,4-dihydro-2H-pyrido[2,3-b][1,4,5]oxathiazepin-2-yl)methyl)-4-methylphenyl)-3-(1-ethyl-4-methyl-1H-benzo[d][1,2,3]triazol-5-yl)propanoic acid]
- ozone-induced death (survival) (rats exposed to ozone [2]; severe ozone exposure, level unable to quantify (intended 1 ppm), FIG. 5A): protection; also recorded: survive the lethal insult
- ozone-induced loss of glutathione (rats exposed to ozone [2]; surviving animals, tissue 24 hrs after ozone exposure, FIG. 5B): protection
- degradation or breakdown of the alveolar barrier (mice exposed to ozone; mice, ozone 1.5 ppm 3 hrs twice per week for 3 weeks): prevented; also recorded: protective effect
- surfactant D (serum surfactant protein-D), biomarker of epithelial/alveolar barrier integrity (mice exposed to ozone; mice, ozone 1.5 ppm 3 hrs twice per week for 3 weeks, dosing 5 days/week, serum 2 hrs after final ozone exposure): dose dependently prevented
- changes in mtDNA (mice exposed to ozone; repeated ozone exposures): dose dependently prevented
- inflammatory immune cells in bronchoalveolar lavage fluid (macrophages and neutrophils) (paraquat-treated rats; paraquat-treated rats, FIG. 2): decreased numbers of immune cells in the bronchoalveolar lavage fluid; also recorded: reduction in inflammatory immune cells
- NQO1 activity (NRF2-mediated gene expression) (paraquat-treated rats; rat lung, PQ-treated, FIG. 3B): stimulated an upregulation of NQO1 activity
- DNA oxidation (8-OHdG levels) (paraquat-treated rats; rat lung, PQ-treated, FIG. 3C): attenuating the impact of PQ on DNA oxidation
- PQ-mediated mtDNA damage (relative mtDNA copy number) (paraquat-treated rats; rat lung, FIG. 3A): blockade of mtDNA damage; also recorded: prevented
- lung function, expressed as Penh (paraquat-treated rats; rats, Compound I suspension i.t. 24 hrs prior to PQ (0.05 mg/kg i.t.), FIG. 1A): improves lung function
- lung edema formation, lung wet:dry weight ratio (paraquat-treated rats; rats, Compound I suspension i.t. 24 hrs prior to PQ (0.05 mg/kg i.t.), FIG. 1B): maintenance of the lung wet:dry ratio; also recorded: protecting against the PQ-induced increase in lung edema formation
- TXNRD1 gene expression (paraquat-treated rats; [5]): exception
- expression of other NRF2 genes (GCLC, HO-1, etc.) (paraquat-treated rats; [5]): up-regulated
- ozone-induced edema formation (lung wet to dry weight ratio) (rats exposed to ozone [3]; FIG. 4A): protected
- ozone-induced mtDNA damage (relative mtDNA copy number) (rats exposed to ozone [3]; FIG. 4B): protected

B1: DNasel: DNasel, presumably targeting expulsed mtDNA (protein, UniProt P24855 23-282, looked up)
Deoxyribonuclease-1: LKIAAFNIQTFGETKMSNATLVSYIVQILSRYDIALVQEVRDSHLTAVGKLLDNLNQDAPDTYHYVVSEPLGRNSYKERYLFVYRPDQVSAVDSYYYDDGCEPCGNDTFNREPAIVRFFSRFTEVREFAIVPLHAAPGDAVAEIDALYDVYLDVQEKWGLEDVMLMGDFNAGCSYVRPSQWSSIRLWTSPTFQWLIPDSADTTATPTHCAYDRIVVAGMLLRGAVVPDSALPFNFQAAYGLSDQLAQAISDHYPVEVMLK
- PQ-induced lung injury and survival [4]: Protection from PQ-induced lung injury and survival
